Measurements from patent publication US6653478B2, “Substituted benzimidazol-2-ones as vasopressin receptor antagonists and neuropeptide Y modulators” (Ortho-McNeil Pharmaceutical, Inc., priority 2000, dated 2003).
Structures can show the parent of a compound that is named as a salt.

Experiments:
human V1b receptor [1] = biological target: T1, human V1b receptor (Homo sapiens, UniProt P47901); assay: V1b binding assay (3H-AVP displacement, HEK-293 membranes); parameters: expressed in transfected cells; host or cells: HEK-293 (membranes); conditions: for inhibition at 10 µM: read-out: V1b % Inh @10
T1 sequence (P47901 1-424): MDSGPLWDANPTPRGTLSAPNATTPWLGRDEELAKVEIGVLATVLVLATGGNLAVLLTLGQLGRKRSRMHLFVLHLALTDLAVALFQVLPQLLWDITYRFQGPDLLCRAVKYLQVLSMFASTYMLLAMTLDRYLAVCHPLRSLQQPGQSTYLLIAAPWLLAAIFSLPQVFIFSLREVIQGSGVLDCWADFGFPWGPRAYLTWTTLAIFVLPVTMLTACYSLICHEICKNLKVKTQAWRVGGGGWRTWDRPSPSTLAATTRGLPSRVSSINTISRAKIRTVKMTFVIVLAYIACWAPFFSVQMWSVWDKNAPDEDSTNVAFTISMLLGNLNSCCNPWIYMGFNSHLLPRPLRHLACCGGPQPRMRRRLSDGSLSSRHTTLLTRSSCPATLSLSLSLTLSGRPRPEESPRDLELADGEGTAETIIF
In short: (§1)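 Read-out is filter-retained 3H-AVP, counted by scintillation after washing with cold saline/0.05% Tween 20. Binding ran 1 hour at room temperature in pH 7.5 buffer with protease inhibitors; 1.25 μM unlabelled AVP gave non-specific binding.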

human V1a receptor = human V1a receptor (Homo sapiens, UniProt P37288); assay: V1a binding assay (3H-AVP displacement, HEK-293 membranes); parameters: expressed in transfected cells; host or cells: HEK-293 (membranes)
In short: as §1

human V2 receptor = human V2 receptor (Homo sapiens, UniProt P30518); assay: V2 functional assay, cAMP accumulation in transfected HEK-293 cells; assay type: cell-based; parameters: expressed in transfected cells; host or cells: HEK-293; conditions: for IC50: AVP 1 nM, read-out: Cell-Based Functional activity V2 IC50
Protocol: (§2) V1a, V1b or V2 Functional Assay
(§3) HEK-293 cells were grown in DMEM media supplemented with 10% FBS and glutamine (Gibco BRL, Grand Island, N.Y.). Once transfected the cells were passed biweekly by trypsinization and seeded into 96 well plates at 33,000 cells per well. HEK-293 were transfected with human V1a, V1b or V2 DNA using DMRIE-C reagent from Life Technologies, Inc., Grand Island, N.Y. Cells were tested for their responsiveness to vasopressin 48 hours after transfection. Stable lines were generated by selecting cells grown in culture media containing geneticin (500 μg/ml, Life Technologies).
The accumulation of cAMP was measured in transfected HEK-293 expressing the human V2 receptor. The cells were cultured 4-7 days in 96-well plates. On the day of assay, cells were washed twice in assay media (DMEM/F12 containing 0.1% BSA). The cells were treated with the test compound for 5 minutes and then given AVP (1 nM) in assay media containing 1 mM isobutylmethylxanthine. After 5 minutes, 0.5 N HCl was added to disrupt the cells and solubilize cAMP. The cAMP content of 20 μl of the cell lysate in each well was measured using cAMP Flashplates (NEN Life Sciences). Data are expressed as pmol cAMP/well. While the assay is optimized to detect and quantitate antagonistic activity, agonistic activity would also be apparent at the higher concentrations of test compounds.
(§4) The data from the cAMP accumulation and the calcium mobilization assays are expressed as IC50 values as determined from dose response curves.

human V1b receptor [2] = biological target: T1, human V1b receptor; assay: V1b functional assay, intracellular calcium mobilization in transfected HEK-293 cells (FLIPR); assay type: cell-based; parameters: expressed in transfected cells; host or cells: HEK-293; conditions: for IC50: challenge 0.5 nM AVP, read-out: Cell-Based Functional activity V1b IC50
Protocol: as §2, §3
Intracellular calcium mobilization was measured in HEK-293 cells transfected to express either human V1a, oxytocin or V1b receptors. Cells were plated into black 96-well Packard Clear-View plates 4 to 7 days prior to use. The cells were loaded with fluo-3 AM (Molecular Probes, Inc., Eugene, Oreg.) in buffer (25 mM Hepes, 125 mM NaCl, 1 gm/l glucose, 0.1% BSA, 5 mM KCl, 0.5 mM CaCl2, 0.5 mM MgCl2, pH 7.45) containing Pluronic (Molecular Probes) Cells were incubated with 5 μM fluo-3 AM for 1 hour shielded from light at room temperature. Intracellular fluorescence was measured using FLIPR (fluorometric imaging plate reader; Molecular Devices, Inc., Sunnyvale, Calif.). The FLIPR protocol called for images to be collected at one second intervals with 50 μl of the test compound added after the initial 10 images. An additional 70 images were then taken to detect any compound agonistic activity. FLIPR then added 50 μl of agonist peptide and collected a final 40 images for quantitating compound antagonistic activity. V1a- and V1b-expressing HEK cells were challenged with 1 nM and 0.5 nM AVP, respectively. Oxytocin-expressing HEK cells were challenged with 0.5 nM oxytocin (Peninsula Labs).
as §4

human V1a receptor, sequence (P37288 whole entry): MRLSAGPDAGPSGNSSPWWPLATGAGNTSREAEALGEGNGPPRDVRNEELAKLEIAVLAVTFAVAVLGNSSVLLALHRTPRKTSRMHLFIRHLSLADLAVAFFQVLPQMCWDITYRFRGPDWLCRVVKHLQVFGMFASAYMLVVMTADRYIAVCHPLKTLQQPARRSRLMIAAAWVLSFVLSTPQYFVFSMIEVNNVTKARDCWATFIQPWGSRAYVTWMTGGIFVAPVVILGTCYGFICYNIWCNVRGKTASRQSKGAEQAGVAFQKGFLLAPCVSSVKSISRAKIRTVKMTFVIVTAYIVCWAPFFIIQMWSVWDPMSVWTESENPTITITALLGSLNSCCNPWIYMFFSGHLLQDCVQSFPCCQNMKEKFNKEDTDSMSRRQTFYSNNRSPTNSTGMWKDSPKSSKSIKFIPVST

Row | Compound | V1b % Inh @10 (human V1b receptor [1]; 10 μM compound) | IC50 (human V1a receptor) | Cell-Based Functional activity V2 % Inh. @ 30 (human V2 receptor; 30 μM compound) | IC50 (human V1b receptor [2]) | inhibition at 1 µM (human V1b receptor [1]; 1.0 μM compound, read-out: V1b@1.0, % Inh) | IC50 (human V2 receptor) | inhibition at 10 µM (human V1b receptor [1]; 10 μM compound) | inhibition at 10 µM (human V2 receptor; HEK293, 10 μM compound, read-out: Cell-Based Functional activity V2 % Inh. @ 10) | inhibition at 30 µM (human V1b receptor [2]; HEK293, 30 μM compound, read-out: Cell-Based Functional activity V1b % Inh. @ 30) | IC50 (human V1b receptor [1]) | inhibition at 30 µM (human V2 receptor; HEK293, 30 μM compound, read-out: Cell-Based Functional activity V2 % Inh. @ 30)
1 | CCN(CC)CCn1c(=O)n(C2CCN(C(=S)NC(c3ccccc3)c3ccccc3)CC2)c2ccccc21 [Compound 35, 1-(N1-Piperidinocarbothioyldiphenylmethylamino-4-yl)-3-(2-diethyaminoethyl)-1,3-dihydrobenzimidazol-2-one] |  | 75 nM |  | 9990 nM | 47% | 623 nM |  |  |  |  | 
2 | NCCCn1c(=O)n(C2CCN(C(=S)NC(c3ccccc3)c3ccccc3)CC2)c2ccccc21 [Compound 55, 1-[(N1-Piperidinocarbothioyldiphenylmethylamino)-4-yl]-3-(3-aminopropyl)-1,3-dihydrobenzimidazol-2-one Monohydrochloride] |  | 27 nM |  | 318 nM |  | 22800 nM |  |  |  | 5100 nM | 
3 | N=C(N)NCCCn1c(=O)n(C2CCN(C(=S)NC(c3ccccc3)c3ccccc3)CC2)c2ccccc21 [Compound 59, 1-[(N1-Piperidinocarbothioyldiphenylmethylamino)-4-yl]-3-(3-guanidinopropyl)-1,3-dihydrobenzimidazol-2-one] |  | 32 nM |  | 6610 nM |  |  | 62% |  |  | 4100 nM | 0%

The next lines start with the values.

Row | V1b % Inh @10 (human V1b receptor [1]; 10 μM compound) | IC50 (human V1a receptor) | Cell-Based Functional activity V2 % Inh. @ 30 (human V2 receptor; 30 μM compound) | IC50 (human V1b receptor [2]) | inhibition at 1 µM (human V1b receptor [1]; 1.0 μM compound, read-out: V1b@1.0, % Inh) | IC50 (human V2 receptor) | inhibition at 10 µM (human V1b receptor [1]; 10 μM compound) | inhibition at 10 µM (human V2 receptor; HEK293, 10 μM compound, read-out: Cell-Based Functional activity V2 % Inh. @ 10) | inhibition at 30 µM (human V1b receptor [2]; HEK293, 30 μM compound, read-out: Cell-Based Functional activity V1b % Inh. @ 30) | IC50 (human V1b receptor [1]) | inhibition at 30 µM (human V2 receptor; HEK293, 30 μM compound, read-out: Cell-Based Functional activity V2 % Inh. @ 30) | Compound
4 | 25%@10 | 260 nM | 0% @ 30 | 16800 nM |  |  |  |  |  |  |  | 1-[(N1-Piperidinocarbothioyl-(1-L-carboxymethyl-2-phenylamino)-4-yl]-3-(3-aminopropyl)-1,3-dihydrobenzimidazol-2-one Hydrochloride [Compound 57]
5 |  | 38 nM |  |  |  |  | 37% | 0% | 0% |  |  | CCN(CC)CCn1c(=O)n(C2CCN(C(=S)NC(Cc3ccccc3)C(=O)OC)CC2)c2ccccc21 [Compound 42, 1-(N1-Piperidinocarbothioyl-(2-phenyl-1-L-carboxymethyl)amino-4-yl)-3-(2-diethyaminoethyl)-1,3-dihydrobenzimidazol-2-one]
